# Measured values taken from PubChem BioAssay AID2060483 (Molecular Pharmacology Branch, DTP, NCI, 2025).
# System: K24384-001-R-PDC complex spheroids, viability
# Experiment: Anticancer human tumor K24384-001-R-PDC patient-derived pancreatic adenocarcinoma cell line growth inhibition [GQUAD]
# Conditions: for IC50: curve of first compound; for viability, T/C: stronger effect = lower value
# Outline: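 Viability of tumor cells grown as complex spheroids with endothelial and stromal cells, exposed to drug combinations. Top concentration at or near clinical Cmax (else 10 microM), diluted in half-log increments.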
# [1] = second compound 0.0316 µM, first compound 0.0316 µM
# [2] = second compound 0.0316 µM, first compound 0.1 µM
# [3] = second compound 0.0316 µM, first compound 0.316 µM
# [4] = second compound 0.0316 µM, first compound 1 µM
# [5] = second compound 0.0316 µM, first compound 3.16 µM
# [6] = second compound 0.0316 µM, first compound 10 µM
# [7] = second compound 0.1 µM, first compound 0.0316 µM
# [8] = second compound 0.1 µM, first compound 0.1 µM
# [9] = second compound 0.1 µM, first compound 0.316 µM
# [10] = second compound 0.1 µM, first compound 1 µM
# [11] = second compound 0.1 µM, first compound 3.16 µM
# [12] = second compound 0.1 µM, first compound 10 µM
# [13] = second compound 0.316 µM, first compound 0.0316 µM
# [14] = second compound 0.316 µM, first compound 0.1 µM
# [15] = second compound 0.316 µM, first compound 0.316 µM
# [16] = second compound 0.316 µM, first compound 1 µM
# [17] = second compound 0.316 µM, first compound 3.16 µM
# [18] = second compound 0.316 µM, first compound 10 µM
# [19] = second compound 1 µM, first compound 0.0316 µM
# [20] = second compound 1 µM, first compound 0.1 µM
# [21] = second compound 1 µM, first compound 0.316 µM
# [22] = second compound 1 µM, first compound 1 µM
# [23] = second compound 1 µM, first compound 3.16 µM
# [24] = second compound 1 µM, first compound 10 µM
# [25] = second compound 3.16 µM, first compound 0.0316 µM
# [26] = second compound 3.16 µM, first compound 0.1 µM
# [27] = second compound 3.16 µM, first compound 0.316 µM
# [28] = second compound 3.16 µM, first compound 1 µM
# [29] = second compound 3.16 µM, first compound 3.16 µM
# [30] = second compound 3.16 µM, first compound 10 µM
# [31] = second compound 10 µM, first compound 0.0316 µM
# [32] = second compound 10 µM, first compound 0.1 µM
# [33] = second compound 10 µM, first compound 0.316 µM
# [34] = second compound 10 µM, first compound 1 µM
# [35] = second compound 10 µM, first compound 3.16 µM
# [36] = second compound 10 µM, first compound 10 µM
# 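Also: spheroids exposed to compounds for seven days.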
smiles,measurement,setting,value
CC(C)n1c(=O)n(C)c2cnc3cc(F)c(-c4ccc(OCCCN5CCCCC5)nc4)cc3c21 + Cc1cnc(CNC(=O)c2c(=O)c3ccc(N4CCCN(C)CC4)nc3n3c2sc2ccccc23)cn1,IC50,second compound 0.0316 µM,> 10000 nM
same,IC50,second compound 0.1 µM,> 10000 nM
same,IC50,second compound 0.316 µM,> 10000 nM
same,IC50,second compound 1 µM,1880 nM
same,IC50,second compound 3.16 µM,< 31.6 nM
same,IC50,second compound 10 µM,< 31.6 nM
same,"viability, T/C",[1],68.1%
same,"viability, T/C",[2],77%
same,"viability, T/C",[3],76.9%
same,"viability, T/C",[4],92.9%
same,"viability, T/C",[5],99.9%
same,"viability, T/C",[6],87.7%
same,"viability, T/C",[7],70.1%
same,"viability, T/C",[8],84.2%
same,"viability, T/C",[9],67.1%
same,"viability, T/C",[10],80.6%
same,"viability, T/C",[11],83.5%
same,"viability, T/C",[12],69.3%
same,"viability, T/C",[13],60.3%
same,"viability, T/C",[14],81.4%
same,"viability, T/C",[15],55%
same,"viability, T/C",[16],62%
same,"viability, T/C",[17],71.2%
same,"viability, T/C",[18],52%
same,"viability, T/C",[19],48.1%
same,"viability, T/C",[20],52%
same,"viability, T/C",[21],57.7%
same,"viability, T/C",[22],51.4%
same,"viability, T/C",[23],54.6%
same,"viability, T/C",[24],41.5%
same,"viability, T/C",[25],44.4%
same,"viability, T/C",[26],46%
same,"viability, T/C",[27],46.2%
same,"viability, T/C",[28],58.4%
same,"viability, T/C",[29],42%
same,"viability, T/C",[30],49.7%
same,"viability, T/C",[31],39%
same,"viability, T/C",[32],19.4%
same,"viability, T/C",[33],39.9%
same,"viability, T/C",[34],46.8%
same,"viability, T/C",[35],32.8%
same,"viability, T/C",[36],0.33%
CC1COCCN1c1cc(-c2ccnn2C)c2ccnc(-c3ccn[nH]3)c2n1 (stereo unspecified) + Cc1cnc(CNC(=O)c2c(=O)c3ccc(N4CCCN(C)CC4)nc3n3c2sc2ccccc23)cn1,IC50,second compound 0.0316 µM,41.5 nM
same,IC50,second compound 0.1 µM,< 31.6 nM
same,IC50,second compound 0.316 µM,< 31.6 nM
same,IC50,second compound 1 µM,< 31.6 nM
same,IC50,second compound 3.16 µM,< 31.6 nM
same,IC50,second compound 10 µM,< 31.6 nM
same,"viability, T/C",[1],53.5%
same,"viability, T/C",[2],37.8%
same,"viability, T/C",[3],40%
same,"viability, T/C",[4],32%
same,"viability, T/C",[5],34.6%
same,"viability, T/C",[6],29.9%
same,"viability, T/C",[7],48.8%
same,"viability, T/C",[8],51.1%
same,"viability, T/C",[9],34%
same,"viability, T/C",[10],41.5%
same,"viability, T/C",[11],32.2%
same,"viability, T/C",[12],24.4%
same,"viability, T/C",[13],44.8%
same,"viability, T/C",[14],46.4%
same,"viability, T/C",[15],39.4%
same,"viability, T/C",[16],34.7%
same,"viability, T/C",[17],32.8%
same,"viability, T/C",[18],22.7%
same,"viability, T/C",[19],42.9%
same,"viability, T/C",[20],35.2%
same,"viability, T/C",[21],34%
same,"viability, T/C",[22],37.4%
same,"viability, T/C",[23],25.3%
same,"viability, T/C",[24],22.9%
same,"viability, T/C",[25],32.8%
same,"viability, T/C",[26],37.4%
same,"viability, T/C",[27],31.4%
same,"viability, T/C",[28],26.8%
same,"viability, T/C",[29],21.7%
same,"viability, T/C",[30],19.2%
same,"viability, T/C",[31],25.4%
same,"viability, T/C",[32],21.5%
same,"viability, T/C",[33],20.9%
same,"viability, T/C",[34],24.8%
same,"viability, T/C",[35],10.3%
same,"viability, T/C",[36],8.1%
O=C(c1cc(Cc2n[nH]c(=O)c3ccccc23)ccc1F)N1CCN(C(=O)C2CC2)CC1 + Cc1cnc(CNC(=O)c2c(=O)c3ccc(N4CCCN(C)CC4)nc3n3c2sc2ccccc23)cn1,IC50,second compound 0.0316 µM,> 10000 nM
same,IC50,second compound 0.1 µM,> 10000 nM
same,IC50,second compound 0.316 µM,> 10000 nM
same,IC50,second compound 1 µM,31.6 nM
same,IC50,second compound 3.16 µM,< 31.6 nM
same,IC50,second compound 10 µM,< 31.6 nM
same,"viability, T/C",[1],88.4%
same,"viability, T/C",[2],93.5%
same,"viability, T/C",[3],92.8%
same,"viability, T/C",[4],113%
same,"viability, T/C",[5],94.8%
same,"viability, T/C",[6],86.3%
same,"viability, T/C",[7],71.8%
same,"viability, T/C",[8],88.7%
same,"viability, T/C",[9],66.9%
same,"viability, T/C",[10],83.6%
same,"viability, T/C",[11],70.9%
same,"viability, T/C",[12],80.7%
same,"viability, T/C",[13],62.5%
same,"viability, T/C",[14],81.5%
same,"viability, T/C",[15],60%
same,"viability, T/C",[16],88.3%
same,"viability, T/C",[17],88.7%
same,"viability, T/C",[18],62.5%
same,"viability, T/C",[19],53%
same,"viability, T/C",[20],48.4%
same,"viability, T/C",[21],49.1%
same,"viability, T/C",[22],67.4%
same,"viability, T/C",[23],60.2%
same,"viability, T/C",[24],49.7%
same,"viability, T/C",[25],43.5%
same,"viability, T/C",[26],52.8%
same,"viability, T/C",[27],47.6%
same,"viability, T/C",[28],59.5%
same,"viability, T/C",[29],38.3%
same,"viability, T/C",[30],50.9%
same,"viability, T/C",[31],40.5%
same,"viability, T/C",[32],24.1%
same,"viability, T/C",[33],43.3%
same,"viability, T/C",[34],45.6%
same,"viability, T/C",[35],27.9%
same,"viability, T/C",[36],12.3%
